# From patent publication US7265149B2, “Indolyl derivatives” (Hoffmann-La Roche Inc., priority 2004, dated 2007)
# Key:
# PPARδ = target: T1, PPARδ (Homo sapiens, UniProt Q03181); assay: PPARδ radioligand binding assay (scintillation proximity); conditions: GST-PPARδ-LBD fusion protein on SPA beads
# T1 construct: PPARδ (aa 139 to 442); made in house; host or cells: E. coli BL21 (pLysS)
# T1 sequence (Q03181 139-441 limits assumed): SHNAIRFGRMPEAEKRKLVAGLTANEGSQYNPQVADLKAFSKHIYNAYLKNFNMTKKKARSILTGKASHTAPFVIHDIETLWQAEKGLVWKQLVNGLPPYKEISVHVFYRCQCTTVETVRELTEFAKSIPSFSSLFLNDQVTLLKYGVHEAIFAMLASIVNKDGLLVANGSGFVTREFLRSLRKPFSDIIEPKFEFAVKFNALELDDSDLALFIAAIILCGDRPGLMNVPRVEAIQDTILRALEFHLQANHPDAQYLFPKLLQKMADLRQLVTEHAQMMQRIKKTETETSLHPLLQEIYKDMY
# Source text: (§1) Background information on the performed assays can be found in: Nichols J S et al. “Development of a scintillation proximity assay for peroxisome proliferator-activated receptor gamma ligand binding domain”, (1998) Anal. Biochem. 257: 112-119.
# (§2) Full-length cDNA clones for humans PPARδ and PPARα and mouse PPARγ were obtained by RT-PCR from human adipose and mouse liver cRNA, respectively, cloned into plasmid vectors and verified by DNA sequencing. Bacterial and mammalian expression vectors were constructed to produce glutathione-s-transferase (GST) and Gal4 DNA binding domain proteins fused to the ligand binding domains (LBD) of PPARδ (aa 139 to 442), PPARγ (aa 174 to 476) and PPARα (aa 167 to 469). To accomplish this, the portions of the cloned sequences encoding the LBDs were amplified from the full-length clones by PCR and then subcloned into the plasmid vectors. Final clones were verified by DNA sequence analysis.
# (§3) Induction, expression, and purification of GST-LBD fusion proteins were performed in E. coli strain BL21 (pLysS) cells by standard methods (Ref: Current Protocols in Molecular Biology, Wiley Press, edited by Ausubel et al.).
# (§4) Radioligand Binding Assay
# PPARδ receptor binding was assayed in HNM10 (50 mM Hepes, pH 7.4, 10 mM NaCl, 5 mM MgCl2, 0.15 mg/ml fatty acid-free BSA and 15 mM DTT). For each 96 well reaction a 500 ng equivalent of GST-PPARδ-LBD fusion protein and radioligand, e.g. 20000 dpm {2-methyl-4-[4-methyl-2-(4-trifluoromethyl-phenyl)-thiazol-5-yl-ditritiomethylsulfanyl]-phenoxy}-acetic acid, was bound to 10 μg SPA beads (PharmaciaAmersham) in a final volume of 50 μl by shaking. The resulting slurry was incubated for 1 h at RT and centrifuged for 2 min at 1300 g. […] Radioligand was added and the reaction incubated at RT for 1 h and scintillation proximity counting performed in the presence of test compounds was determined. All binding assays were performed in 96 well plates and the amount of bound ligand was measured on a Packard TopCount using OptiPlates (Packard). […]
# PPARγ = target: T2, PPARγ (Mus musculus, UniProt P37238); assay: PPARγ radioligand binding assay (scintillation proximity); conditions: GST-PPARγ-LBD fusion protein on SPA beads
# T2 construct: PPARγ (aa 174 to 476); made in house; host or cells: E. coli BL21 (pLysS)
# T2 sequence (P37238 174-475 isoform P37238-2): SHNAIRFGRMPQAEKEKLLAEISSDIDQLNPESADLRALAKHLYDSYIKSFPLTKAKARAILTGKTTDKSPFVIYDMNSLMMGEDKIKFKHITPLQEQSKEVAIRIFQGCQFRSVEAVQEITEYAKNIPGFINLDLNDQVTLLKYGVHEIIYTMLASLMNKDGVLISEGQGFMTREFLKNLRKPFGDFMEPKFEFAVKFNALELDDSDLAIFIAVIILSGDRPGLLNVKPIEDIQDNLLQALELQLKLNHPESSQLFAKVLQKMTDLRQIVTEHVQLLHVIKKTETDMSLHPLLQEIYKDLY
# Source text: as §1, §2, §3, §4
# PPARγ receptor binding was assayed in TKE50 (50 mM Tris-HCl, pH 8, 50 mM KCl, 2 mM EDTA, 0.1 mg/ml fatty acid-free BSA and 10 mM DTT). For each 96 well reaction an 140 ng equivalent of GST-PPARγ-LBD fusion protein was bound to 10 μg SPA beads (PharmaciaAmersham) in a final volume of 50 ul by shaking. The resulting slurry was incubated for 1 h at RT and centrifuged for 2 min at 1300 g. The supernatant containing unbound protein was removed and the semidry pellet containig the recptor-coated beads was resolved in 50 μl of TKE. […] All binding assays were performed in 96 well plates and the amount of bound ligand measured on a Packard TopCount using OptiPlates (Packard). Nonspecific binding was determined in the presence of 10^−4 M unlabelled compound. […]
# PPARα = target: T3, PPARα (Homo sapiens, UniProt Q07869); assay: PPARα radioligand binding assay (scintillation proximity); conditions: GST-PPARα-LBD fusion protein on SPA beads
# T3 construct: PPARα (aa 167 to 469); made in house; host or cells: E. coli BL21 (pLysS)
# T3 sequence (Q07869 167-468 limits assumed): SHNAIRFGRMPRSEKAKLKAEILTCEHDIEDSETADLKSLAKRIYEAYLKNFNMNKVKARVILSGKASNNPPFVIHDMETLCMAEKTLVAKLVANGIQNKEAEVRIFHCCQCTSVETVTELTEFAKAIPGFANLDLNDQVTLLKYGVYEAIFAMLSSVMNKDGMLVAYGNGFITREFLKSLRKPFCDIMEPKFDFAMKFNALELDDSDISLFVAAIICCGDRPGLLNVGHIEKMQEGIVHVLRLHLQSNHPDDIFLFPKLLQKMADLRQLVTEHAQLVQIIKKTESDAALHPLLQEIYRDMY
# Source text: as §1
# as §2, with “analysis. […]” for “analysis.”
# PPARα receptor binding was assayed in TKE50 (50 mM Tris-HCl, pH 8, 50 mM KCl, 2 mM EDTA, 0.1 mg/ml fatty acid-free BSA and 10 mM DTT). […] All binding assays were performed in 96 well plates and the amount of bound ligand measured on a Packard TopCount using OptiPlates (Packard). Nonspecific binding was determined in the presence of 10^−4 M unlabelled compound. […]
IC50 (PPARδ),IC50 (PPARγ),IC50 (PPARα),Structure (SMILES)
140 nM,≥ 10000 nM,,"Cc1c(-c2ccc(Cl)cc2)nn(C)c1COc1ccc2ccn(CC(=O)O)c2c1 [Example 2, {6-[5-(4-Chloro-phenyl)-2,4-dimethyl-2H-pyrazol-3-ylmethoxy]-indol-1-yl}-acetic acid]"
43 nM,≥ 10000 nM,13 nM,"Cn1nc(-c2ccc(OC(F)(F)F)cc2)cc1CCCOc1ccc2ccn(CC(=O)O)c2c1 [Example 20, (6-{3-[2-Methyl-5-(4-trifluoromethoxy-phenyl)-2H-pyrazol-3-yl]-propoxy}-indol-1-yl)-acetic acid]"
4 nM,≥ 10000 nM,2570 nM,"Cn1nc(-c2ccc(C(F)(F)F)cc2)c(Br)c1COc1ccc2ccn(CC(=O)O)c2c1 [Example 8, {6-[4-Bromo-2-methyl-5-(4-trifluoromethyl-phenyl)-2H-pyrazol-3-ylmethoxy]-indol-1-yl}-acetic acid]"
